Source: article PMC5779714, “Metallochaperone UreG serves as a new target for design of urease inhibitor: A novel strategy for development of antimicrobials” (PLoS Biology, 2018)
“And” between values parts separate entries of the source, which are not always exact repeats. Equal values may be shown once.

What was measured:
UreG [1] = molecular target: T1, UreG (Helicobacter pylori, UniProt Q09066); experiment: biochemical; format: biochemical, H. pylori
Method: A Malachite Green Phosphate Assay Kit (Abcam) was utilized to quantify the hydrolysis of GTP by UreG under various conditions. […] GTPase activity of UreG was triggered through the addition of 10 mM KHCO3, after which the reaction was incubated at 37°C for 30 min; then, the free phosphate from hydrolysis of GTP was determined. […] To eliminate the potential effect of small compounds on malachite green assay, the assay included a subtraction of the absorbance of reaction with the same amounts of compounds but without UreG enzyme for each reading.

H. pylori urease = H. pylori urease (Helicobacter pylori, UniProt P14916+P69996); experiment: cell-based; format: cell-based; conditions: 20 μM compound in cultured medium; read-out: inhibition of urease activity in H. pylori cells
H. pylori urease, sequence (P14916 whole entry, looked up): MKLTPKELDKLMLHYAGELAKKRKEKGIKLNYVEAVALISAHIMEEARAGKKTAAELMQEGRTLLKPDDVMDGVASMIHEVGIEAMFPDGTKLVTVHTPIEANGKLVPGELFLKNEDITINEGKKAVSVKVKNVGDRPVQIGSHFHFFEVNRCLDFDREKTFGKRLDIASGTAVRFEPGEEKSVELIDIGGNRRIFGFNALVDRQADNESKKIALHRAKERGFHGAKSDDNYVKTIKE
H. pylori urease, sequence (P69996 whole entry, looked up): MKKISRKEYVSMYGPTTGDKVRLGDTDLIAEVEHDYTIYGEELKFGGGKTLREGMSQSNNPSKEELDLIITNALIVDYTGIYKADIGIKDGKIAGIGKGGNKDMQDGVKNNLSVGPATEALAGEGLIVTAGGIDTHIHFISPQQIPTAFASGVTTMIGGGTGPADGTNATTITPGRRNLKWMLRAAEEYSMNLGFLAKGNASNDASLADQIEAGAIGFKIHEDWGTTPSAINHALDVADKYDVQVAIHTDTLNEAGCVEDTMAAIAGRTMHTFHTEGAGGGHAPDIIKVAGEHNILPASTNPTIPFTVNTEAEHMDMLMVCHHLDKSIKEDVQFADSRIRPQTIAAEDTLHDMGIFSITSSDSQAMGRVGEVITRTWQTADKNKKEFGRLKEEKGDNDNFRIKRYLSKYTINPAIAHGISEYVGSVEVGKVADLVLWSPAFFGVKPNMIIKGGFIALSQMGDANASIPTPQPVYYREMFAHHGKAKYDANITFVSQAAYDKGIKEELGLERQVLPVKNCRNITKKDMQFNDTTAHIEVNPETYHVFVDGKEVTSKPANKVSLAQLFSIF

H. pylori = experiment: Growth of H. pylori in neutral and acidic brucella broth (OD600); format: cell-based
UreG [2] = molecular target: T1, UreG; experiment: Fluorescence-quenching titration of UreG (Kd); format: binding, H. pylori
Method: (§1) Using the relation between the emission intensity at 310 nm and molecule-UreG–bound species, as well as one site-binding model, the Kd values were calculated by a logistic regression model referring to a previous report. […] All fluorescence readings were corrected for the dilution effect.

UreGΔNKXD = UreGΔNKXD (Helicobacter pylori, UniProt Q09066, D148A/K146A/N145A); experiment: Fluorescence-quenching titration of mutant UreGΔNKXD; format: binding, H. pylori
UreGΔNKXD, sequence (Q09066 whole entry N145A/K146A/D148A): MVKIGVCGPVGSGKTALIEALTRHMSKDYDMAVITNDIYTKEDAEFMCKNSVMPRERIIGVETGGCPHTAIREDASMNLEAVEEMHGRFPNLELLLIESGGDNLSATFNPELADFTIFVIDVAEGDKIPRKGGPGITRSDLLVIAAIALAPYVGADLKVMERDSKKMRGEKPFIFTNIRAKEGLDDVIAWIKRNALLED
Method: To further confirm the interface between UreG and small molecules generated from computational models, we then constructed an UreG mutant (UreGΔNKXD) by replacing selected residues (N145, K146, D148) with Ala to disrupt G4 motif, which abolished GTP binding of UreG (S17 Fig).
as §1

UreG [3] = molecular target: T1, UreG; experiment: Nickel binding of UreG (UV absorption at 337 nm) in presence of compounds; set-up: species or system H. pylori
Method: We further investigated whether binding of cmpd4 or cmpd8 to the guanine nucleotide binding pocket perturbed the Ni(II) coordination to the protein. Considering that coordination of Ni(II) to UreG results in a (Cys)→Ni(II) LMCT band centered at about 337 nm, we monitored the UV absorption of UreG samples (5 μM) at 337 nm upon titration of nickel with or without the supplement of cmpd4 or cmpd8. As shown in S19 Fig, cmpd4 at a ratio of [cmpd4]/[UreG] of 5 and 10 reduced the percentages of Ni(II)-bound UreG to ca. 75% and 30%, respectively, and a similar phenomenon was also observed for cmpd8 (S19 Fig), indicative of the disruption of nickel binding property of UreG through targeting nucleotide binding site.
Supplementary file pbio.2003887.s021.png: S19 Fig Effect of cmpd4 and cmpd8 on nickel binding property of UreG. UreG (5 μM) in HEPES buffer (5 μM GTP, 1 mM MgSO4) was titrated with NiSO4 in the presence of cmpd4 or cmpd8 at various concentrations. Titration of nickel ion into UreG samples led to the increasing of absorption at 337 nm, the highest of which was set as 100% for the percentage of Ni-bound UreG. The supplement of cmpd4 and cmpd8 reduced the percentage of Ni-bound UreG. […] (PNG) Click here for additional data file.

[4] = system: AGS cells exposed to H. pylori; experiment: Cell infection model: AGS cells exposed to H. pylori pre-cultured with inhibitors; format: cell-based, human
[5] = system: AGS cells with H. pylori infection; experiment: AGS cells with H. pylori infection, inhibitors administrated to the AGS cells (S20 Fig); format: cell-based, human; conditions: 10 μM administrated to AGS cells with H. pylori infection
Source text: As expected, low viability of AGS with the supplement of cmpd4 and cmpd8 was observed due to the toxicity of small compounds to mammalian cells. […] (PNG) Click here for additional data file.

T1 sequence (Q09066 whole entry): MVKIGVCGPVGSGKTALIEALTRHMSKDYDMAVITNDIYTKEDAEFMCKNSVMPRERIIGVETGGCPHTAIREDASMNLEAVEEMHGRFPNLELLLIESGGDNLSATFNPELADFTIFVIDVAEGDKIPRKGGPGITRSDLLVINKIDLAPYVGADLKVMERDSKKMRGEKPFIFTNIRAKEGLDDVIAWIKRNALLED

SMILES: O=C(Cn1c2ccccc2c(=O)c2ccccc21)N/N=C/c1cc([N+](=O)[O-])ccc1N1CCCCCC1 [cmpd8]
- IC50 (UreG [1]): 13.2 ± 7.6 µM
- Normalized GTPase activity(%) (UreG [1]; log[μM] 0): 100.3%
- Normalized GTPase activity(%) (UreG [1]; log[μM] 0.60206): 93.8%
- Normalized GTPase activity(%) (UreG [1]; log[μM] 0.90309): 81.8%
- Normalized GTPase activity(%) (UreG [1]; log[μM] 1.20412): 41.6%
- Normalized GTPase activity(%) (UreG [1]; log[μM] 1.50515): 32.9%
- Normalized GTPase activity(%) (UreG [1]; log[μM] 1.79588): 13.8%
- Normalized GTPase activity(%) (UreG [1]; log[μM] 2.09691): 2.1%
- Normalized GTPase activity(%) (UreG [1]; log[μM] 2.39794): 16.7%
- inhibition at 20 µM (UreG [1]; read-out: inhibition of the GTPase activity of UreG): 37 to 72%
- inhibition at 20 µM (H. pylori urease): ~90%
- OD600(pH5) (H. pylori; pH 5): 0.47
- OD600 (pH7) (H. pylori; pH 7): 0.116
- Kd (UreG [2]): 7.5 ± 3.6 µM
- fluorescence intensity (a.u.) (UreG [2]; log(ligand[μM]) 0): 2868.33 a.u.
- fluorescence intensity (a.u.) (UreG [2]; log(ligand[μM]) 0.30103): 2606 a.u.
- fluorescence intensity (a.u.) (UreG [2]; log(ligand[μM]) 0.60206): 2272 a.u.
- fluorescence intensity (a.u.) (UreG [2]; log(ligand[μM]) 0.90309): 1853.67 a.u.
- fluorescence intensity (a.u.) (UreG [2]; log(ligand[μM]) 1.20412): 1359.33 a.u.
- fluorescence intensity (a.u.) (UreG [2]; log(ligand[μM]) 1.50515): 767.233 a.u.
- fluorescence intensity (a.u.) (UreG [2]; log(ligand[μM]) 1.68124): 595.5 a.u.
- fluorescence intensity (a.u.) (UreG [2]; log(ligand[μM]) 1.80618): 360.267 a.u.
- fluorescence intensity (a.u.) (UreG [2]; log(ligand[μM]) -0.30103): 3140.33 a.u.
- fluorescence intensity (a.u.) (UreG [2]; log(ligand[μM]) -0.60206): 3427 a.u.
- fluorescence intensity (a.u.) (UreG [2]; log(ligand[μM]) -1.30103): 3670 a.u.
- Kd (UreGΔNKXD): 33.4 µM
- fluorescence intensity (a.u.) (UreGΔNKXD; log(ligand[μM]) 0): 2422.67 a.u.
- fluorescence intensity (a.u.) (UreGΔNKXD; log(ligand[μM]) 0.30103): 2357.67 a.u.
- fluorescence intensity (a.u.) (UreGΔNKXD; log(ligand[μM]) 0.60206): 2253.67 a.u.
- fluorescence intensity (a.u.) (UreGΔNKXD; log(ligand[μM]) 0.90309): 2017.33 a.u.
- fluorescence intensity (a.u.) (UreGΔNKXD; log(ligand[μM]) 1.20412): 1677.67 a.u.
- fluorescence intensity (a.u.) (UreGΔNKXD; log(ligand[μM]) 1.50515): 1189.33 a.u.
- fluorescence intensity (a.u.) (UreGΔNKXD; log(ligand[μM]) 1.80618): 685.167 a.u.
- fluorescence intensity (a.u.) (UreGΔNKXD; log(ligand[μM]) 2.10721): 316.133 a.u.
- fluorescence intensity (a.u.) (UreGΔNKXD; log(ligand[μM]) -0.30103): 2519 a.u.
- fluorescence intensity (a.u.) (UreGΔNKXD; log(ligand[μM]) -1.30103): 2677 a.u.
- absorption at 337 nm (UreG [3]; [compound]/[UreG] 5, Ni 0 μM): 2.14E-04
- absorption at 337 nm (UreG [3]; [compound]/[UreG] 5, Ni 1 μM): 0.00481
- absorption at 337 nm (UreG [3]; [compound]/[UreG] 5, Ni 2 μM): 0.0064
- absorption at 337 nm (UreG [3]; [compound]/[UreG] 5, Ni 3 μM): 0.00838
- absorption at 337 nm (UreG [3]; [compound]/[UreG] 5, Ni 4 μM): 0.01641
- absorption at 337 nm (UreG [3]; [compound]/[UreG] 5, Ni 5 μM): 0.0186
- absorption at 337 nm (UreG [3]; [compound]/[UreG] 5, Ni 6 μM): 0.01908
- absorption at 337 nm (UreG [3]; [compound]/[UreG] 5, Ni 7 μM): 0.02094
- absorption at 337 nm (UreG [3]; [compound]/[UreG] 5, Ni 8 μM): 0.0213
- absorption at 337 nm (UreG [3]; [compound]/[UreG] 10, Ni 0 μM): 0.00131
- absorption at 337 nm (UreG [3]; [compound]/[UreG] 10, Ni 1 μM): 0.00222
- absorption at 337 nm (UreG [3]; [compound]/[UreG] 10, Ni 2 μM): 0.00217
- absorption at 337 nm (UreG [3]; [compound]/[UreG] 10, Ni 3 μM): 0.00973
- absorption at 337 nm (UreG [3]; [compound]/[UreG] 10, Ni 4 μM): 0.01047
- absorption at 337 nm (UreG [3]; [compound]/[UreG] 10, Ni 5 μM): 0.01403
- absorption at 337 nm (UreG [3]; [compound]/[UreG] 10, Ni 6 μM): 0.0146
- absorption at 337 nm (UreG [3]; [compound]/[UreG] 10, Ni 7 μM): 0.01179
- absorption at 337 nm (UreG [3]; [compound]/[UreG] 10, Ni 8 μM): 0.01166
- Normalized cell survival (%) [4]: 81.1% ± 11.3% and 81.0811%
- Ammonia in medium (mM) ([4]; H. pylori pre-cultured with 10 μM inhibitor, urea 10 mM, 24 h, Hp alone ca. 2.5 mM): around 1.1 mM
- Ammonia in medium ([4]; H. pylori pre-cultured with 10 μM inhibitor, urea 10 mM, 24 h, Hp alone ca. 2.5 mM, listed as cmp8): 1.209 mM
- Ammonia in medium [5]: 0.5294 mM
- Normalized cell survival (%) [5]: low viability
- Normalized cell survival (%) ([5]; listed as cmp8): 23.4234%
